This note sets out measurements from a melting point compilation (Tetko et al.; mined from patent text by program, amines drawn as free bases though some values may be those of a salt).

Usually melting point stands for the temperature, or range, at which the solid turns liquid. On to `CC(C)(C)OC(=O)NC(Cc1cc(C(=O)c2cc(C(F)(F)F)cc(C(F)(F)F)c2)ccc1[N+](=O)[O-])C(=O)OC(C)(C)C` (centres undefined), for which the melting point was in the range of 176 to 177 °C.
In the case of `CC(=O)Oc1cc(Br)cc2c1OC(C)(C)C2` it was 76 °C.
Take `Nc1nc(N)nc(-c2ccc(Sc3ccccc3)cc2)n1`: the melting point was in the range of 213 to 215 °C.
Compound `O=C(O)CSc1nc(Cl)cc(Cl)n1` displayed a melting point of 120 to 122 °C.
For `COC(=O)[C@H](c1ccccc1Cl)N1CCc2sc(OC(=O)c3ccc([N+](=O)[O-])cc3)cc2C1` the value was 100 to 102 °C; for `COC(=O)CC(O)C(O)CC(=O)OC` (centres undefined), 80 to 81 °C; for `COc1ccc2c(c1OC)CCC1CNC(=O)C21` (centres undefined), 185 to 187 °C.
`CCc1nc(-c2ncn3c4ccccc4c(=O)n(C)c23)no1` yielded a melting point of 199 to 202 °C.
For `O=C(O)C(Oc1ccccc1)C(=O)NCC1CCN(c2ccncc2)CC1` (centres undefined) the value was 84 to 86 °C; for `CN1Sc2sccc2C=C1CO`, 128 to 130 °C.
`CC(C)(CCC(=O)O)C(=O)Oc1cc(Cl)ccc1Oc1ccc(Cl)cc1Cl` had a melting point of 125 to 128 °C.
In turn, `CN(Cc1sc2c(=O)c(C(=O)NCc3ccc(Cl)cc3)cn(C)c2c1COCC[Si](C)(C)C)C[C@@H](O)c1ccco1` showed a melting point of 110 to 113 °C.
`CCC1c2ccc(F)n2-c2ccc(F)cc2N1S(=O)(=O)c1ccc(O)cc1` (centres undefined) gave a melting point of 169 to 171 °C.
For `N#Cc1cccc(C2=Nc3cc(CO)c(C#Cc4ccccc4)cc3NC(=O)C2)c1`, the melting point was > 255 °C.
In the case of `C=CCc1cc(C)c2c(c1O)C(=O)CC2` it was 41 to 45 °C; in that of `O=C(O)/C=C/c1ccc(OCCN2CCOCC2)cc1`, 228 °C; in that of `NCC1CCN(c2nc3ccccc3[nH]2)CC1`, 136 to 138 °C.
Compound `CCCCCCCCCCOC(=O)CN(CP(=O)(ONC1CCCCC1)ONC1CCCCC1)C(=O)C(F)(F)F` showed a melting point of 79.5 to 82.5 °C.
`COc1ccc2nc(S(=O)Cc3nccc(OCC(F)(F)F)c3OC)[nH]c2c1` (centres undefined) gave a melting point of 36 to 46 °C.
In the case of `CC(C)=CCC(C(=O)O)C(=O)N(Nc1ccccc1)c1ccccc1` (centres undefined) it was 166 °C.
In the case of `Cc1cnc(C)c(Oc2ccc(OCn3cnc(Cl)c3Cl)cc2)n1` it was 84 to 85 °C.
Turning to `NC1CCN(c2nc(Nc3ccc(F)cc3F)c(C(=O)O)cc2F)C1` (centres undefined), the melting point was 249 to 250 °C.
Consider `COc1ccc2c(c1)OCC1CN(C(=O)c3cccnc3)N=C21` (centres undefined), for which the melting point was in the range of 145 to 147 °C.
With `ON=Cc1ccc2c(c1)ncn2-c1cccc(N2CCCCC2)c1`, the melting point was in the range of 213 to 214 °C.
For `CCC(=NOc1ccc(Cl)cc1)c1cc(Cl)ccc1NS(=O)(=O)C(F)(F)F` the value was 87 to 88 °C; for `CCOCc1nc2c(N)nc3cc(-c4ccccc4)ccc3c2n1CC(C)(C)NC(=O)NC1CCCCC1`, 152 to 156 °C; for `O=C1C=C(O)CC(c2ccccc2)O1` (centres undefined), 145 to 146 °C.
For `COC(C)=Nc1cccc(O)n1` the value was 128 to 129 °C; for `COC1(OC)CC(c2ccccc2)N(O)C(c2ccccc2)C1` (centres undefined), 172 to 175 °C; for `COc1ccc(C(=O)N2c3ccccc3C(Nc3ccc(Br)cc3)CC2C)cc1OC` (centres undefined), 173 to 175 °C.
For `Cc1cccc(NC(c2ccc(OC(C)C)cc2)c2ccc3cccnc3c2O)n1` (centres undefined), the melting point lay within 132 to 134 °C.
`COc1ccc([N+](=O)[O-])c(NCCC[C@H](N)C(=O)O)c1` yielded a melting point of 245 to 246 °C.
On to `CCOC(=O)/C=C/c1cc(O)ccc1Br`, for which the melting point fell in the range of 96 to 98 °C.
`OCCNc1cc(Nc2ccc(Cl)cc2)ncn1` registered a melting point of 183 °C.
As to `COC(=O)c1[nH]c2c(C)ccc(C)c2c1S(C)(=O)=O`, the melting point fell in the range of 163 to 164 °C.
The compound `O=C1c2ccccc2C(=O)N1C/C=C/COc1ccc(-n2ccnc2)cc1` displayed a melting point of 170 to 171 °C.
In the case of `CC(=O)c1ccc(S(=O)(=O)N2CCN(C)CC2)cc1` it was 118 to 119 °C.
In the case of `C=CCN1CC(C)N(C(c2cccnc2)c2cccc(O)c2)CC1C` (centres undefined) it was 115 to 118 °C.
For `CC(C)Oc1cc(-n2c(=O)c3c(n(C)c2=O)CCC3)c(F)cc1Cl` the value was 105 to 107 °C; for `CCC(OC(=O)CS(C)(=O)=O)c1ccc(Cl)c2nc3n(c12)CCCN3c1ccc(Cl)cc1Cl` (centres undefined), 187 to 189 °C.
As for `CS(=O)(=O)c1nc(N)c2ncn(C3CCCCC3)c2n1`, the melting point fell in the range of 272 to 274 °C.
The compound `CN(C)C(=NCCN1CCC(C(=O)c2ccc(F)cc2)CC1)NC#N` gave a melting point of 139 to 141 °C.
For `COc1ccccc1C(=O)Nc1nc2c(s1)CN(C)CC2` the value was 164 to 166 °C.
Consider `COC(=O)C(C)(C)OCc1cc2nc(Cl)ccc2n1S(=O)(=O)c1cccc2ccccc12`, for which the melting point is 108 °C.
For `COc1ccc(NS(=O)(=O)c2cc3cc(Br)ccc3oc2=O)cc1` the value was 182 to 184 °C.
Turning to `Nc1[nH]c(=O)c(C(=O)CCC2CCN(CC3CCCCC3)CC2)cc1Cl`, the melting point is 164 °C.
In the case of `CCCCc1ncc(/C=C(\Cc2ccc(OC)cc2)c2nnn[nH]2)n1Cc1ccccc1Cl` it was 168 to 171 °C.
As to `CCc1c(C(=O)OC)c(C(=O)OC)c2n1-c1ccccc1C2`, the melting point fell in the range of 86 to 88 °C.
In the case of `Cc1nc(Cl)c2ccccc2c1CC(=O)O` it was 180 to 183 °C; in that of `NC(=O)CN(CCCc1ccc(F)cc1)C1CCC(c2ccc3[nH]c(=O)oc3c2)CC1` (centres undefined), 266 to 270 °C.
In the case of `C=CCC1(C(C)(C)C(=O)O)C(=O)NC(=O)NC1=O` it was 202 to 203 °C.
In the case of `CCOC1CC2(C)C(CCC3C4CC5OC5C4(C)CC(N(C)C)C32)CC1O` (centres undefined) it was 149 to 151 °C; in that of `Nc1ncc(-c2ccc3nnn(Cc4ccc5ncccc5c4)c3n2)cn1`, 244 to 246 °C; in that of `Cc1c(C)c2c(c(C)c1NC(=O)CC(C)(C)C)C(c1ccc(C(C)C)c(O)c1)CO2` (centres undefined), 220 to 221 °C.
As for `Cc1nn(C)c(-c2ccccc2)c1NC1=NCCN1`, the melting point lay within 232 to 234 °C.
In the case of `Cc1ccc2cccc(OCc3c(Cl)ccc(C(=O)NCCN4C(=O)c5ccccc5C4=O)c3Cl)c2n1` it was 210 to 212 °C; in that of `COc1nc(-c2cccc(Cl)c2)c2cc(C(=O)N(C)OC)ccc2n1`, 118 °C.
In the case of `Cn1ncnc1-c1cc(S(C)=O)c2[nH]c(=O)ccc2c1` (centres undefined) it was 224 to 227 °C; in that of `O=S(=O)(CCOc1ccc(Cl)cc1)c1ccc(Cl)cc1`, 108 °C.
In the case of `CC(C)N1C(=O)[C@@H](CC(=O)NCC#N)O[C@H](c2ccccc2Cl)c2cc(Cl)ccc21` (relative stereo) it was 216 to 217 °C; in that of `CCn1nc2c(N)nc3ccccc3c2c1CC(C)(C)O`, 223 to 225 °C.
`COc1ccc(-c2c(C#N)c(CNS(=O)(=O)c3c(F)cccc3F)nn2-c2ccc(Cl)cc2Cl)cc1` returned a melting point of 170 °C.
`c1ccc(COc2cc(OCC3CCCCC3)ccc2CNc2ccncc2)cc1` registered a melting point of 131 to 132 °C.
In the case of `O=C(O)Cc1ccc(OCc2cc(Cl)ccc2C(=O)O)cc1` it was 197 to 201 °C.
